Assay results taken from patent US20200384003A1, “TRITERPENOID-CONTAINING PHARMACEUTICAL COMPOSITION AND USE THEREOF” (SHANGHAI LANMU CHEMICALS CO., LTD., priority 2017, published 2020).
Residue numbers refer to the chain shown, from its start.

What was measured:
[1] = Pharmacokinetic study, drug in aqueous humor after eye glass cavity injection (Example 5); type: in vivo; conditions: SD rats, 5 μl injected into each glass cavity, detected 10 days after the surgery
Description: SD rats (about 10 weeks old, male or female) were anesthetized by intraperitoneal injection of pentobarbital sodium and pupil was dilated, then eye glass cavity injection surgery was performed. All animals were injected with the same kind of drugs in both eyes. The amount of drug injected into each glass cavity was 5 μl, and the number of test animals per drug formulation (Example 1, Example 2 and Comparative Example 1) was four, and the drug metabolism in the aqueous humor was detected 10 days after the surgery.

traumatic cataract = assay: Therapeutic effect of eye ointment on traumatic cataract (Example 10); type: in vivo, SD rats; conditions: pictures before and after administration (FIG. 22-24, Table 10)
[2] = test system: diabetic metabolite cataract; assay: Therapeutic effect on diabetic metabolite cataract, streptozotocin model (Example 11); type: in vivo, SD rats; conditions: right eye of diabetic rat, pictures before and after 2 months of treatment (FIG. 25-29)
[3] = Heat stability at 80° C. versus 4° C., HPLC and appearance (Example 18); type: physicochemical; conditions: for content after heat storage / initial experiment purity: HPLC; for initial experiment purity: stored at 4° C.
Description: The heatl stabilities of inotodiol and trametenolic acid were tested, and lanosterol was used as a reference at the same time.

[4] = target: T1, mutated lens protein (αB-crystallin R120G) (Homo sapiens, UniProt P02511, R120G); assay: Intracellular mutated lens protein aggregation inhibition experiment in transfected HeLa cells (Example 21); type: cell-based; conditions: 10 μM, treated 3.5 hours, then 6.5 h normal medium, fewer + = better
T1 construct: expressed in transfected cells; host or cells: HeLa
T1 sequence (P02511 1-175 R120G): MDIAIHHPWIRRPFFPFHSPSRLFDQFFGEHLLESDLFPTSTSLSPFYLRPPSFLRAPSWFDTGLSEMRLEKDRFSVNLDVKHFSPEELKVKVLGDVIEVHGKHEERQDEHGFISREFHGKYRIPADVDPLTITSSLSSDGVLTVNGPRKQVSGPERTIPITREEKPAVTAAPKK
Description: In this example, apart of the specific compounds obtained in Example 19 and Example 20 were selected for intracellular mutated lens protein (αB-crystallin R120G) aggregation inhibition experiment (experimental method was described in Chinese patent CN201580057679). The aggregation inhibition activities of compound I and compound II in the present invention on lens protein mutants were evaluated to screen a compound which was effective in treating related disease such as cataract.
The tumor cell line HeLa was selected as a host cell transfected with the mutant lens protein (αB-crystallin […]) expression plasmid, the medium was DMEM with […], and the culture conditions were 37° C., saturated humidity and 5% carbon dioxide cell incubator. Mycoplasma was negative. The transfection process is that the appropriate number of HeLa cells were inoculated on the pre-coated slides. When fully adherent cells grew to about 75% cell density, the expression vector was transfected with liposome. After 4 hours of transfection, the medium was changed to normal medium. Then the HeLa cells were cultured in the cell incubator for 13 hours to induce the expression of exogenous mutant lens protein. After changing the medium, the replaced new medium contained various compounds of the formula I and formula II of the present invention to be tested (DMSO was used as solvent in all mother fluid), wherein the final concentration of each compound was 10 μM, the negative control was 1.5% DMSO solvent, and the positive control was lanosterol (10 μM). The HeLa cells were treated with the medium containing the test compound, 1.5% DMSO solvent and lanosterol for 3.5 hours, respectively, and the normal fresh medium containing no DMSO, test compound or lanosterol was exchanged and the cells were cultured for another 6.5 h, then Anti-p62 antibody and DAPI were used for routine cellular immunofluorescence detection. The field of vision of three positions per slide was randomly selected, the ratio of cells containing aggregated crystalline proteins (lens protein aggregates) was calculated, and the effect of each test compound on intracellular aggregation of mutant lens proteins was finally determined, the results were shown in Table 19.

[5] = target: T2, wild-type αB lens protein aggregate (WT αB) (Homo sapiens, UniProt P02511); assay: Dissolution of lens protein aggregates, ThT fluorescence (Example 22); type: biochemical; conditions: liposome form, final concentration 125 μM, 24 hours, versus blank liposomes (FIG. 33)
T2 sequence (P02511 1-175): T1 sequence (P02511 1-175 R120G) with G120R
Description: The experimental method was as follows: Inotodiol was used as test compound, and its dissolution effect on wild-type αB lens protein aggregate (WT αB) was measured, and lanosterol was used as positive control.
In the present example, the formulations of pharmaceutical composition in the test group and the control group were liposome, wherein the component of the formulation of test group was 40 mg of DPPC, 10 mg of cholesterol and 10 mg of test compound; the component of the formulation of positive control group was 40 mg of DPPC, 10 mg of cholesterol and 10 mg of lanosterol; the component of formulation of the blank control group was 40 mg of DPPC and 10 mg of cholesterol. […]
The analysis of compound concentration in the liposome formulation: The obtained liposome solution was demulsificated with 4 to 5 volumes of methanol solution to afford clear solution. The concentration of compound in the liposome was determined by HPLC method, and the chromatographic conditions are as follows. […] After the comparative analysis, the concentration of corresponding compound in the liposome preparation was determined.
The induction of protein aggregates is as follows. […] After the treatment, ThT fluorescence was used to detect the effect of different compounds on αB lens protein aggregates.

cataract = conditions: sustained-release lanosterol drug, dogs; cited from earlier work
cataract lens = conditions: direct administration to the eyeball or lens, primates; cited from earlier work
[6] = 80° C. for 1 week, compared with 4° C.
[7] = 80° C. for 2 weeks, compared with 4° C.

SMILES	decrease of drug concentration in aqueous humor compared with initial concentration immediately after injection [1]	cortical turbidity area of eyes with traumatic cataract, transparency after administration (traumatic cataract)	turbid area of lens / course of cataract after administration [2]	appearance after heat storage [3, 6]	purity after heat storage ([3]; 80° C. for 2 weeks) [%]	appearance after heat storage [3, 7]	appearance after heat storage ([3]; 80° C. for 1 day)	content after heat storage ([3]; 80° C. for 1 day) [%]	content after heat storage ([3]; 80° C. for 2 day) [%]	content after heat storage ([3]; 80° C. for 3 day) [%]	initial experiment purity [3] [%]	Inhibitory effect (percentage of cells containing aggregated proteins) [4]	ThT fluorescence signal of αB lens protein aggregates [5]	cataract treatment effect (cataract)	transparency of cataract lens (cataract lens)
CC(C)=CCC[C@@H](C)[C@H]1CC[C@@]2(C)C3=C(CC[C@]12C)[C@@]1(C)CC[C@H](O)C(C)(C)[C@@H]1CC3 [lanosterol, reference compound]	82%±14.7%	could restore transparency of lens with slight turbidity, but no obvious reversal of the disease has been observed in severe cataract	increased	one third of the lanosterol turned yellow	32	All lanosterol turned yellow	the powder became hard and formed into a large piece	73	48	44	96	+++ (>60% of the cells in the field of vision contain protein aggregates)	increased the ThT fluorescence signal	has a cataract treatment effect on dogs only when combined with high-frequency intravitreal injection	does not restore or improve the transparency of cataract lens in primates
CC(C)=CCC(O)[C@@H](C)[C@H]1CC[C@@]2(C)C3=C(CC[C@]12C)[C@@]1(C)CC[C@H](O)C(C)(C)C1CC3 (stereo partly drawn) [Inotodiol, inotodiol]	11%±2.3%			did not change		began to turn yellow		88	68	67	94	+ (<30% of the cells in the field of vision contained protein aggregates)	significantly reduce the ThT fluorescence signal		
